Calls of active or inactive are those of the source. The rule behind the calls is not given here.
Tests used:
Orexin receptor type 2 = biological target: T1, Orexin receptor type 2 (Homo sapiens, UniProt O43614); experiment: Displacement of [3H]EMPA from human orexin receptor-2 expressed in HEK293 cells after 90 mins by scintillation counting; type: cell-based
T1 sequence (O43614 whole entry): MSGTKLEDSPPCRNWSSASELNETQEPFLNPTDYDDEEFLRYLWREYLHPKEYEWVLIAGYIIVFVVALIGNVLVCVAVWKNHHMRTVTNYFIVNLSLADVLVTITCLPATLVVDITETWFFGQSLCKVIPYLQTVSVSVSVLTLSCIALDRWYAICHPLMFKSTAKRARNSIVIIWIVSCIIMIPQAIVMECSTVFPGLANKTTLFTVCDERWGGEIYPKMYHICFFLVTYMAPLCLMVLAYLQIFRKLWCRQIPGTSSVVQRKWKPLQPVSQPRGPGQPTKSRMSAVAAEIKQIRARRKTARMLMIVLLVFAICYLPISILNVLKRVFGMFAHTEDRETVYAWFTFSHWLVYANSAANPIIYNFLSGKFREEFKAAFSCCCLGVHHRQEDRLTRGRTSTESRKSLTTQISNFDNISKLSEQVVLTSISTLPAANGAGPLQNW

[1] = biological target: T2, Orexin/Hypocretin receptor type 1 (Homo sapiens, UniProt O43613); experiment: Displacement of [3H]-4-(2,6-Difluoro-4-methoxybenzyl)-2-(5,6-dimethoxypyridin-3-yl)-2H-1,2,4-benzothiadiazin-3(4H)-one 1,1-dioxide from orexin receptor-1 (unknown origin) after 90 mins
T2 sequence (O43613 whole entry): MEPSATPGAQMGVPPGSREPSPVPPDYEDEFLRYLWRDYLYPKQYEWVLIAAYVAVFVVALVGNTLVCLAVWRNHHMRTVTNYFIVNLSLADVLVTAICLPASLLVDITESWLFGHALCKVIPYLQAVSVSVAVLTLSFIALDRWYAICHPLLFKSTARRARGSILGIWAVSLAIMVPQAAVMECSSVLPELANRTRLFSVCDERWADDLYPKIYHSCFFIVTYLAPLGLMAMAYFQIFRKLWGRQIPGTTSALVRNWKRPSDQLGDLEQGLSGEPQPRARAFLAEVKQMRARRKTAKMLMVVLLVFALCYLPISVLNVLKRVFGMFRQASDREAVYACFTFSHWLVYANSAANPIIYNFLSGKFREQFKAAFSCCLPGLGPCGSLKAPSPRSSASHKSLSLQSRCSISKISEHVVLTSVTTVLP

[2] = Half life in rat liver microsomes; type: ADME
[3] = Clearance in Sprague-Dawley rat at 1 mg/kg, iv; type: ADME, organism-based; conditions: in vivo
[4] = Volume of distribution at steady state in Sprague-Dawley rat at 1 mg/kg, iv; type: ADME, organism-based; conditions: in vivo, read-out: Vdss
[5] = Ratio of drug level in brain to plasma in Sprague-Dawley rat at 1 mg/kg, iv after 0.5 hrs; type: ADME, organism-based; conditions: read-out: BPR
[6] = Ratio of drug level in cerebrospinal fluid to brain in Sprague-Dawley rat at 1 mg/kg, iv after 0.5 hrs; type: ADME, organism-based, CSF/Brain; conditions: in vivo
[7] = Half life in Sprague-Dawley rat at 2 mg/kg, po; type: ADME, organism-based; conditions: in vivo
Rattus norvegicus [8] = experiment: AUC (infinity) in Sprague-Dawley rat at 2 mg/kg, po; type: ADME, organism-based; parameters: dose 2 mg/kg, route oral, time infinity; conditions: in vivo
[9] = Tmax in Sprague-Dawley rat at 2 mg/kg, po; type: ADME, organism-based; conditions: in vivo
[10] = Oral bioavailability in Sprague-Dawley rat at 2 mg/kg; type: ADME, organism-based; conditions: in vivo
[11] = Clearance in beagle dog at 2 mg/kg, iv; type: ADME, organism-based, Canis lupus familiaris; conditions: in vivo
[12] = Volume of distribution at steady state in beagle dog at 2 mg/kg, iv; type: ADME, organism-based, Canis lupus familiaris; conditions: in vivo, read-out: Vdss
[13] = Half life in beagle dog at 2 mg/kg, po; type: ADME, organism-based, Canis lupus familiaris; conditions: in vivo
Canis familiaris = experiment: AUC (infinity) in beagle dog at 2 mg/kg, po; type: ADME, organism-based, Canis lupus familiaris; parameters: dose 2 mg/kg, route oral, time infinity; conditions: in vivo
[14] = Tmax in beagle dog at 2 mg/kg, po; type: ADME, organism-based, Canis lupus familiaris; conditions: in vivo
[15] = Oral bioavailability in beagle dog at 2 mg/kg; type: ADME, organism-based, Canis lupus familiaris; conditions: in vivo
[16] = biological target: Orexin/Hypocretin receptor type 2 (Homo sapiens) (UniProt O43614)
[17] = biological target: T3, Orexin receptor type 2 (Homo sapiens) (UniProt O43614)
T3 sequence (whole entry): T1 sequence (O43614 whole entry)
Description: Binding affinity to orexin receptor-2 (unknown origin) assessed as dissociation half-life by Motulsky-Mahan radioligand binding assay

Rattus norvegicus [18] = experiment: Ex-vivo receptor occupancy of orexin receptor-2 Sprague-Dawley rat frontal cortex using [3H]EMPA at 1 mg/kg, po after 1 hr by autoradiography relative to control; type: functional
[19] = Plasma concentration in Sprague-Dawley rat plasma at 1 mg/kg, po after 1 hr; type: ADME, organism-based
Rattus norvegicus [20] = experiment: Antiinsomnic activity in CD1 rat assessed as effect on sleep architecture at 30 mg/kg, po administered at 18 hrs at circadian time; type: functional, organism-based
[21] = biological target: T4, Orexin/Hypocretin receptor type 1 (Homo sapiens) (UniProt O43613)
T4 sequence (whole entry): T2 sequence (O43613 whole entry)

[22] = biological target: T3, Orexin receptor type 2 (Homo sapiens); remark: listed apart in the source
Description: Binding affinity to orexin receptor-2 (unknown origin) assessed as dissociation half-life by SPR assay

SMILES | Ki (Orexin receptor type 2) [nM] | Ki [1] [nM] | half-life [2] [min] | further results
COc1ccc(N2C(=O)N(Cc3ccc4c(c3)OCO4)c3ccccc3S2(=O)=O)cc1OC | 251 | – | – | –
COc1ccc(N2C(=O)N(Cc3c(F)cc(F)cc3Cl)c3ccccc3S2(=O)=O)cc1OC | 1 | 25.1 | – | –
COc1ccc(N2C(=O)N(Cc3c(F)cc(F)cc3F)c3ccccc3S2(=O)=O)cc1OC | 2 | 50.1 | – | –
COc1ccc(N2C(=O)N(Cc3c(F)cccc3Cl)c3ccccc3S2(=O)=O)cc1OC | 0.794 | 7.94 | – | –
COc1ccc(N2C(=O)N(Cc3ccc(F)cc3Cl)c3ccccc3S2(=O)=O)cc1OC | 25.1 | > 2510 | – | –
COc1cc(F)c(CN2C(=O)N(c3ccc(OC)c(OC)n3)S(=O)(=O)c3ccccc32)c(F)c1 | 0.2 | – | 8 | –
COc1cc(F)c(CN2C(=O)N(c3cc(OC)nc(OC)c3)S(=O)(=O)c3ccccc32)c(F)c1 | 0.251 | 1 | 16 | –
COc1cc(N2C(=O)N(Cc3c(F)cc(F)cc3F)c3ccccc3S2(=O)=O)cc(OC)n1 | 1.26 | 15.8 | 16 | clearance [3]: 17 mL/min/kg; Vd [4]: 3.9 L/kg; Kp at 0.5 h [5]: 1.51; Ratio ([6]; BLD = below limit of detection): BLD; half-life [7]: 198 min; AUC (Rattus norvegicus [8]): 705 ng·h/mL; Tmax [9]: 24 min; bioavailability [10]: 36%
COc1cc(F)c(CN2C(=O)N(c3cnc(OC)c(OC)c3)S(=O)(=O)c3ccccc32)c(F)c1 | 0.398 | 2.51 | 9 | –
COc1cc(N2C(=O)N(Cc3c(F)cc(F)cc3F)c3ccccc3S2(=O)=O)cnc1OC | 5.01 | 12.6 | 28 | clearance [3]: 18 mL/min/kg; clearance [11]: 5 mL/min/kg; Vd [4]: 2.2 L/kg; Vd [12]: 3.6 L/kg; Kp at 0.5 h [5]: 0.77; Ratio [6]: 0.01; half-life [7]: 96 min; half-life [13]: 636 min; AUC (Rattus norvegicus [8]): 558 ng·h/mL; AUC (Canis familiaris): 6960 ng·h/mL; Tmax [9]: 90 min; Tmax [14]: 24 min; bioavailability [10]: 29%; bioavailability [15]: 100%; T1/2 [16]: 4.3 min; T1/2 [17]: 3 min
COc1cc(F)c(CN2C(=O)N(c3ccc(OC)c(OC)c3)S(=O)(=O)c3ccccc32)c(Cl)c1 | 0.1 | 0.398 | – | –
COc1cc(N2C(=O)N(Cc3c(F)cc(F)cc3Cl)c3ccccc3S2(=O)=O)cnc1OC | 1.58 | 39.8 | 23 | clearance [3]: 34 mL/min/kg; Vd [4]: 3.5 L/kg; Kp at 0.5 h [5]: 0.79; Ratio [6]: 0.02; half-life [7]: 108 min; AUC (Rattus norvegicus [8]): 300 ng·h/mL; Tmax [9]: 48 min; bioavailability [10]: 29%
COc1ccc(N2C(=O)N(Cc3ccccc3)c3ccccc3S2(=O)=O)cc1OC | 79.4 | 2000 | – | –
COc1ccc(-n2c(=O)c3ccccc3n(Cc3ccccc3Cl)c2=O)cc1OC | > 10000 | > 6310 | – | –
COc1ccc(N2C(=O)N(Cc3c(F)cc(F)cc3OC)c3ccccc3S2(=O)=O)cc1OC | 6.31 | 63.1 | – | –
COc1ccc(N2C(=O)N(Cc3c(F)cc(F)cc3F)c3ncccc3S2(=O)=O)nc1OC | 1.58 | 25.1 | 16 | clearance [3]: 29 mL/min/kg; Vd [4]: 2.3 L/kg; Kp at 0.5 h [5]: 0.84; Ratio [6]: 0.01; half-life [7]: 78 min; AUC (Rattus norvegicus [8]): 401 ng·h/mL; Tmax [9]: 30 min; bioavailability [10]: 34%
COc1cc(F)c(CN2C(=O)N(c3ccc(OC)c(OC)c3)S(=O)(=O)c3ccccc32)c(F)c1 | 0.501 | 2 | – | –
COc1ccc(N2C(=O)N(Cc3ccc(Cl)cc3F)c3ccccc3S2(=O)=O)cc1OC | 10 | 63.1 | – | –
COc1ccc(N2C(=O)N(Cc3c(F)cc(C)cc3Cl)c3ccccc3S2(=O)=O)cc1OC | 0.794 | 6.31 | – | –
COc1ccc(N2C(=O)N(Cc3ccccc3F)c3ccccc3S2(=O)=O)cc1OC | 6.31 | 316 | – | –
Cc1ccc(-n2nccn2)c(C(=O)N2CCN(c3nc4cc(Cl)ccc4o3)CC[C@H]2C)c1 [SUVOREXANT] | – | – | – | Occ (Rattus norvegicus [18]): 31%; concentration at 1 h [19]: 22 ng/mL; Activity (Rattus norvegicus [20]): Active; T1/2 [21]: 24 min; T1/2 [22]: 210 min; T1/2 [17]: 79 min
COc1cc(N2C(=O)N(Cc3c(F)cc(F)cc3F)c3ccccc3S2(=O)=O)ccn1 | 63.1 | 398 | 23 | –
CNc1cc(N2C(=O)N(Cc3c(F)cc(OC)cc3F)c3ncccc3S2(=O)=O)cnc1OC | 0.631 | 1.26 | 7 | –
